Measurements published in patent US12655114B2, “Ionizable lipid compounds and lipid nanoparticle compositions” (SunVax mRNA Therapeutics Inc., priority 2022, dated 2026).

What was measured:
Assay type in all cases: cell-based
[1] = test system: 293T, C2C12 or MC38 cells; assay: SamRNA-GFP transfection efficiency of LNPs by flow cytometry; settings: LNP-SamRNA-GFP formulated with the lipid; FIGS. 4-6, 8-10
Description: The delivery system used to deliver the GFP-mRNA transfect are LNPs formulated using 12 individual ionizable lipids synthesized by three-component reactions. To generate the LNP encapsulated self-amplifying mRNA, the ionizable lipids of the present disclosure were dissolved in ethanol and directly added into an ethanol solution containing DOPE, cholesterol and DMG-PEG2000 at predetermined molar ratio. Self-amplifying mRNA encoding GFP sequences aqueous solution was mixed and the LNP mixture (100 ng mRNA) was added to a 96-well plate pre-seeded with MC38, C2C12 or 293T cells. The cells were incubated at 5% CO2 and 37° C. overnight. The GFP mRNA transfection efficiency was measured by flow cytometry.
E6, an ionizable lipid of the disclosure, was formulated into LNPs with 1,2-Dioleoyl-sn-glycero-3-phosphoethanolamine (DOPE), cholesterol (Chol), methoxypolyethylene glycol (DMG-PEG2000) with a mole ratio of 50/10/38.5/1.5 (ionizable lipid/DOPE/Chol/DMG-PEG2000) encapsulated self-amplifying mRNA or DNA encoding with reporter genes either green fluorescent protein (samRNA-GFP or DNA-CMV-EGFP) or firefly Luciferase (samRNA-LUC). Formulations containing 100 ng of self-amplifying mRNA were incubated to a well of 96-well plate with 60-70% confluent of HEK293, or C2C12, or MC38 cells (FIGS. 10, 23). The transfection efficiency was determined by flow cytometry for detection of GFP, or plate reader for detection of luciferase. LNP formulated using FDA approved ionizable lipid MC3 was used as a control (FIG. 10).
(§1) The LNPs containing SamRNA-GFP (or SamRNA-LUC, 100 ng/well) were added into 96-well plate which was pre-seeded with 293T, C2C12 or MC38 cells. After 24 hours incubation at 37° C. and 5% CO2, the luciferase SamRNA transfection efficiency was measured by plate reader (Perkin Elmer Envision 2104). The GFP SamRNA transfection efficiency was measured by flow cytometry (BD FACSymphony™ A5 SE Cell Analyzer).

293T cells [2] = assay: GFP expression in 293T cells treated with LNP-SamRNA-GFP (formulation optimization, FACS); settings: LNPs with self-amplifying mRNA encoding GFP, FIG. 22
Description: as §1
An orthogonal experimental design was applied to optimize the formulation of synthesized ionizable lipids, DOPE, Chol and DMG-PEG2000 that encapsulated samRNA-GFP. Library A contained 16 formulations with four factors and four levels.
In Library A, the 293T cells were treated in different amounts of LNPs ([…] of SamRNA-GFP). The delivery efficiency of LNPs-SamRNA-GFP of A-6, A-9, A-10, A-13 show more than 60% GFP expression when the 293T cells were transfected with 50, 25 and 12.5 ng of mRNA (FIG. 14). The samRNA-GFP delivery efficiency increased with the molar ratios of Chol and DOPE increase, while increased the molar ratios of P6A2 and DMG-PEG2000 reduced the samRNA-GFP delivery efficiency (FIG. 15).
A second orthogonal experimental design was applied to optimize the formulation of LNPs. In Library B, the 293T cells were treated with 50 or 12.5 ng of samRNA-GFP (FIG. 16).

293T cells [3] = assay: SamRNA-LUC transfection efficiency of LNPs by plate reader (luminescence); settings: LNP-SamRNA-Luc formulated with the lipid, incubated overnight, FIG. 11
Description: as §1

Compound	delivery of mRNA-GFP compared with FDA approved ionizable lipid MC3 [1]	further results
CCCCCCCCCN(CCCCCCCCC)CCC(=O)N1CN(C(=O)CCN(CCCCCCCCC)CCCCCCCCC)CN(C(=O)CCN(CCCCCCCCC)CCCCCCCCC)C1 [E2, 1,1′,1″-(1,3,5-triazinane-1,3,5-triyl)tris(3-(dinonylamino)propan-1-one)]	more effectively deliver mRNA-GFP	
CCCCCCCCCCCCC(CCCCCCCCCC)CNCCC(=O)OC1CC(OC(=O)CCNCC(CCCCCCCCCC)CCCCCCCCCCCC)CC(OC(=O)CCNCC(CCCCCCCCCC)CCCCCCCCCCCC)C1 (stereo not drawn) [P7]		delivery efficacies compared with FDA approved ionizable lipid MC3 (293T cells [2]): better delivery efficacies than FDA approved ionizable lipid MC3
CCCCCCCCCCCCCCCC(=O)N(C(CCCCCCC)CCCCCCC)C(C(=O)NC12CC3CC(CC(C3)C1)C2)C1CCN(CC)CC1 (stereo not drawn) [P56A1, N-(2-(((1s,3s)-adamantan-1-yl)amino)-1-(1-ethylpiperidin-4-yl)-2-oxoethyl)-N-(pentadecan-8-yl)palmitamide]		bioluminescence signals compared with MC3-LNP-SamRNA-Luc (293T cells [3]): stronger bioluminescence signals than MC3-LNP-SamRNA-Luc
CCCCCCCCCCCCCCCCC(=O)N(C(CCCCCCC)CCCCCCC)C(C(=O)NC12CC3CC(CC(C3)C1)C2)C1CCN(CC)CC1 (stereo not drawn) [P56B1, N-(2-(((1s,3s)-adamantan-1-yl)amino)-1-(1-ethylpiperidin-4-yl)-2-oxoethyl)-N-(pentadecan-8-yl)heptadecanamide]		bioluminescence signals compared with MC3-LNP-SamRNA-Luc (293T cells [3]): stronger bioluminescence signals than MC3-LNP-SamRNA-Luc
CCCCCCCCCCCCCCN(CCCCCCCCCCCCCC)CCC(=O)OC1CC(OC(=O)CCN(CCCCCCCCCCCCCC)CCCCCCCCCCCCCC)CC(OC(=O)CCN(CCCCCCCCCCCCCC)CCCCCCCCCCCCCC)C1 (stereo not drawn) [T7]		delivery efficacies compared with FDA approved ionizable lipid MC3 (293T cells [2]): better delivery efficacies than FDA approved ionizable lipid MC3
CCCCCCCCN(CCCCCCCC)C(c1ccc(C(c2ccccc2O)N(CCCCCCCC)CCCCCCCC)cc1)c1ccccc1O (stereo not drawn) [TP1A11, 2,2′-(1,4-phenylenebis((dioctylamino)methylene))diphenol]	more effectively deliver mRNA-GFP	
CCCCCCCCCCCCCN(CCCCCCCCCCCCC)C(c1ccc(CCCCCCCCCCCC)cc1)c1ccccc1O (stereo not drawn) [TP3F11, 2-((ditridecylamino)(4-dodecylphenyl)methyl)phenol]	more effectively deliver mRNA-GFP	
CCCCCCCCCCCCCCN(CCCCCCCCCCCCCC)C(c1ccc(CCCCCCCCCCCC)cc1)c1ccccc1O (stereo not drawn) [TP3G11, 2-((ditetradecylamino)(4-dodecylphenyl)methyl)phenol]	more effectively deliver mRNA-GFP	
CCCCCCCCCCCCCCN(CCCCCCCCCCCCCC)C(c1cccs1)c1ccccc1O (stereo not drawn) [TP4G11, 2-((ditetradecylamino)(thiophen-2-yl)methyl)phenol]	more effectively deliver mRNA-GFP	
